# Like-named read-outs stand apart in the source and are kept apart here.
# What was measured:
# CYP2B6 = assay: CYP induction in cryopreserved human hepatocytes, CYP2B6; conditions: 1 μm, 48 hours, positive control phenobarbital
# Karpas-422 xenograft = assay: Efficacy study in Karpas-422 xenograft model; format: in vivo; conditions: mice, p.o. BID, up to 28 days
# Protocol: (§1) The animals were fed ad libitum water (reverse osmosis 1 ppm Cl) and NIH 31 Modified and Irradiated Lab Diet® consisting of 18.0% crude protein, 5.0% crude fat, and 5.0% crude fiber. The mice were housed on irradiated Enrich-o'cobs™ bedding in static microisolators on a 12-hour light cycle at 20-22° C. (68-72° F.) and 40-60% humidity. Alf procedures complied with the recommendations of the Guide for Care and Use of Laboratory Animals with respect to restraint, husbandry, surgical procedures, feed and fluid regulation, and veterinary care.
# Human lymphoma cell lines line were obtained from different sources (ATCC, DSMZ), e.g., Karpas-422 obtained from DSMZ. […]
# Human lymphoma cell lines, e.g., Karpas-422 cells, were harvested during mid-log phase growth, and re-suspended in […] base media and 50% Matrigel™ (BD Biosciences) (RPMI:Matrigel=1:1). […] Tumor size, in mm^3, was calculated from: […]
# (§2) Mice were treated at compound doses ranging from 62.5-500 mg/kg on a BID (2 times a day every 12 h) schedule for various amounts of days by oral gavage. Each dose was delivered in a volume of 0.2 mL/20 g mouse (10 mL/kg), and adjusted for the last recorded weight of individual animals. […]
# Treatment efficacy was determined on the last treatment day, MTV(n), the median tumor volume for the number of animals, n, evaluable on the last day, was determined for each group. […]
# [1] = tested on: human cytochromes P450 (CYP); assay: Assessment of CYP inhibition, overall conclusion on reversible inhibition; conditions: human liver microsomes
# CYP1A = assay: CYP induction in cryopreserved human hepatocytes, CYP1A; conditions: 48 hours, positive control β-naphthoflavone
# [2] = Tolerability in Karpas-422 xenograft tumor bearing mice (body weight); format: in vivo; conditions: Karpas-422 xenograft mice, p.o. BID, up to 28 days
# Protocol: as §1
# Test compounds were stored at room temperature and protected from light. On each treatment day, fresh compound formulations were prepared by suspending the powders in 0.5% sodium carboxymethylcellulose (NaCMC) and 0.1% Tween® 80 in deionized water. […]
# as §2
# In order to test whether a compound could induce an anti-tumor effect in vivo, Karpas-422 xenograft tumor bearing mice were treated with a compound at, e.g., 62.5, 125, 250, or 500 mg/kg BID for 28 days. […] The tumor growth over the treatment course of 28 days for vehicle and test compound treated groups was measured.
# CYP3A4/5 = assay: Time-Dependent Inactivation (TDI) assessment of CYP3A4/5; format: in vitro ADME, human; conditions: for inactivation of CYP3A4/5 (conclusion in words): using midazolam as probe
# WSU-DLCL2 cells = assay: Cell Proliferation Analysis (WSU-DLCL2, Cell Titer Glo); format: cell-based; conditions: Homo sapiens, WSUDLCL2, 6 days
# [3] = pH 7.4, probe testosterone, time-dependent inactivation of CYP3A4/5, human liver microsomes, read-out: KI
SMILES,CYP2B6 % Positive Control (CYP2B6) [%],antitumor effect in Karpas-422 xenograft model (Karpas-422 xenograft),reversible CYP inhibition (conclusion in words) [1],CYP1A % Positive Control (CYP1A; 1 μm) [%],CYP1A % Positive Control (CYP1A; 10 μm) [%],tolerability [2],"Ki (CYP3A4/5; human, human liver microsomes, pH 7.4, time-dependent inactivation of CYP3A4/5, footnote ** not given, read-out: KI (value in parentheses marked **)) [µM]",Ki (CYP3A4/5; [3]) [µM],inactivation of CYP3A4/5 (conclusion in words) (CYP3A4/5),IC50 (WSU-DLCL2 cells) [µM]
"CCN(c1cc(-c2ccc(OCCOC)cc2)cc(C(=O)NCc2c(C)cc(C)[nH]c2=O)c1C)[C@H]1CC[C@H](N(C)C)CC1 [Compound 1, N-((4,6-dimethyl-2-oxo-1,2-dihydropyridin-3-yl)methyl)-5-(((trans)-4-(dimethytamino)-cyclohexyl)(ethyl)-amino)-4′-(2-methoxyethoxy)-4-methyl-[1,1′-biphenyl]-3-carboxamide]",18.0,tumor stasis and regression,no significant reversible inhibition,2.8,3.0,well tolerated,3.3,6.4,"time-, concentration-, and NADPII-dependent inactivation of CYP3A4/5",
"CCN(c1cc(C#CCN2CCOCC2)cc(C(=O)NCc2c(C)cc(C)[nH]c2=O)c1C)[C@H]1CC[C@H](N(C)CCOC)CC1 [Compound 2, N-((4,6-dimethyl-2-oxo-1,2-dihydropyridin-3-yl)methyl)-3-(ethyl((trans)-4-((2-methoxyethyl)(methyl)amino)cyclohexyl)amino)-2-methyl-5-(3-morpholinoprop-1-yn-1-yl)benzamide]",,,no significant reversible inhibition,,,,,22.3,"time-, concentration-, and NADPII-dependent inactivation of CYP3A4/5",0.385
"CCN(c1cc(C#CC2CCN(C)CC2)cc(C(=O)NCc2c(C)cc(C)[nH]c2=O)c1C)C1CCOCC1 [Compound 105, N-((4,6-Dimethyl-2-oxo-1,2-dihydropyridin-3-yl)methyl)-3-(ethyl(tetrahydro-2H-pyran-4-yl)amino)-2-methyl-5-((1-methylpiperidin-4-yl)ethynyl)benzamide]",,,potentially significant inhibition of CYP2D6 and CYP3A4 (midazolam),3.0,4.4,,,10.2,"time-, concentration-, and NADPII-dependent inactivation of CYP3A4/5",

# From patent publication US10098888B2, “Substituted benzene compounds” (Epizyme, Inc., priority 2012, dated 2018)
